Measurements reported in patent publication US12227520B2 (priority 2019, dated 2025).
Where two headings read alike, the source gives them in different places.

Columns and labels:
pLai RLuc reporter virus = experiment: microbe, parasite or virus in culture; assay type: cell-based, HIV; details: Human immunodeficiency virus 1, 72 h
Summary of the method: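 MT-4 cells pre-infected 2 h at 37 °C with pLai RLuc virus, then exposed to 1:3 serial dilutions of compound in RPMI/10% FBS with or without 50% human serum for 72 h at 37 °C. Renilla luminescence read-out; serum shift = EC50(HS/CCM)/EC50(CCM).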

[1] = Cytotoxicity assay in MT-4 cells; assay type: cell-based, human; details: human, uninfected MT-4 cells, 5 days incubation; read-out: CC50
Summary of the method: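 Infected MT-4 cells (HIV-1 IIIB, fresh 1:250 dilution of concentrated stock) or mock-infected cells exposed to compounds for 5 days at 37 °C. Viability by CellTiter-Glo luminescence; 5 μM AZT positive control, no-drug negative control. Uninfected cells used for cytotoxicity, with 10 μM puromycin as base-level cytotoxicity control.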

HIV-1 (IIIB) = experiment: Antiviral assay in MT-4 cells (HIV MT-4 antiviral assay); assay type: cell-based; details: Human immunodeficiency virus 1, IIIB, MT4, 120 h, HIV-1 (IIIB) in MT-4 cells, 5 days incubation; read-out: EC50
Summary of the method: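 MT-4 cells infected with HIV-1 IIIB (1:250 diluted stock) and exposed to 1:3 serially diluted compound in RPMI with 10% FBS. Viability read by CellTiter-Glo luminescence after 5 days at 37° C; mock-infected cells and 5 μM AZT as controls.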

[2] = read-out: Antiviral Serum Shift RLuc 50% HS, HS/CCM (RPMI media, 10% FBS, 50% HS, 1% P/S), 72-h incubation
[3] = read-out: Antiviral Serum Shift RLuc CCM, CCM (RPMI media, 10% FBS, 1% P/S), 72-h incubation

Row | Compound | EC50 (pLai RLuc reporter virus; [2]) | EC50 (pLai RLuc reporter virus; [3]) | CC50 at 5 days [1] | EC50 (HIV-1 (IIIB))
1 | C[C@]1(F)CCN2C[C@H](C1)n1cc(C(=O)NCc3c(F)cc(F)cc3F)c(=O)c(O)c1C2=O [Example 115-1, (5S,7S)-5-fluoro-12-hydroxy-5-methyl-1,11-dioxo-N-(2,4,6-trifluorobenzyl)-1,4,5,6,7,11-hexahydro-3H-2,7-methanopyrido[1,2-a][1,4]diazonine-10-carboxamide] | 0.713 nM | 0.271 nM | 12200 nM | 1.48 nM
2 | C[C@@H]1CO[C@H](C)[C@H]2CN1C(=O)c1c(O)c(=O)c(C(=O)NCc3c(F)cc(F)cc3F)cn12 [Example 196, (3R,6R,7R)-12-hydroxy-3,6-dimethyl-1,11-dioxo-N-(2,4,6-trifluorobenzyl)-1,3,4,6,7,11-hexahydro-2,7-methanopyrido[1,2-d][1,4,7]oxadiazonine-10-carboxamide] | 14.3 nM | 0.469 nM | 25900 nM | 2.08 nM
3 | C[C@]12CCCCN(C1)C(=O)c1c(O)c(=O)c(C(=O)NCc3ccc(F)cc3F)cn12 [Example 173, (7S)—N-(2,4-difluorobenzyl)-12-hydroxy-7-methyl-1,11-dioxo-1,4,5,6,7,11-hexahydro-3H-2,7-methanopyrido[1,2-a][1,4]diazonine-10-carboxamide] | 13.9 nM | 0.363 nM | 12500 nM | 1.24 nM
4 | O=C(NCc1ccc(F)cc1F)c1cn2c(c(O)c1=O)C(=O)N1C[C@@H]2CCC[C@@H]1C(F)F [Example 189, (3R,7S)—N-(2,4-difluorobenzyl)-3-(difluoromethyl)-12-hydroxy-1,11-dioxo-1,4,5,6,7,11-hexahydro-3H-2,7-methanopyrido[1,2-a][1,4]diazonine-10-carboxamide] | 6.06 nM | 0.411 nM | 12300 nM | 1.56 nM
5 | O=C(NCc1ccc(F)cc1F)c1cn2c(c(O)c1=O)C(=O)N1CC/C=C\C[C@@H]2C1 [Example 44-1, (8R,Z)—N-(2,4-difluorobenzyl)-13-hydroxy-1,12-dioxo-1,3,4,7,8,12-hexahydro-2,8-methanopyrido[1,2-a][1,4]diazecine-11-carboxamide] | 2.33 nM | 0.677 nM | 10700 nM | 1.71 nM
6 | O=C(NCc1ccc(F)c(Cl)c1F)c1cn2c(c(O)c1=O)C(=O)N1CC=CC[C@H]2C1 [Example 58, (7S)—N-(3-chloro-2,4-difluorobenzyl)-12-hydroxy-1,11-dioxo-1,6,7,11-tetrahydro-3H-2,7-methanopyrido[1,2-a][1,4]diazonine-10-carboxamide] | 1.67 nM | 0.25 nM | 4150 nM | 0.986 nM
7 | O=C(NCc1c(F)cc(F)cc1F)c1cn2c(c(O)c1=O)C(=O)N1CCC[C@@H]3C[C@]32C1 [Example 66-1, (1aR,11aR)—N-(2,4,6-trifluorobenzyl)-7-hydroxy-6,8-dioxo-1a,2,3,4,6,8-hexahydro-1H-5,11a-methanocyclopropa[h]pyrido[1,2-a][1,4]diazonine-9-carboxamide] | 20.3 nM | 0.226 nM | 11100 nM | 1.76 nM
8 | O=C1CC[C@H]2CN(C1)C(=O)c1c(O)c(=O)c(C(=O)NCc3c(F)cc(F)cc3F)cn12 [Example 78, (7S)-12-hydroxy-1,4,11-trioxo-N-(2,4,6-trifluorobenzyl)-1,4,5,6,7,11-hexahydro-3H-2,7-methanopyrido[1,2-a][1,4]diazonine-10-carboxamide] | 3.76 nM | 1.93 nM | > 50000 nM | 9.56 nM
9 | O=C(NCc1ccc(F)c(Cl)c1F)c1cn2c(c(O)c1=O)C(=O)N1CCC=C(F)[C@@H]2C1 (single isomer, unassigned) [Example 123-2] | 440 nM | 0.245 nM | 14600 nM | 1.93 nM
10 | C[C@@]12CCCCN(C1)C(=O)c1c(O)c(=O)c(C(=O)NCc3c(F)cc(F)cc3F)cn12 [Example 59-2, (7R)-12-hydroxy-7-methyl-1,11-dioxo-N-(2,4,6-trifluorobenzyl)-1,4,5,6,7,11-hexahydro-3H-2,7-methanopyrido[1,2-a][1,4]diazonine-10-carboxamide] | 55.2 nM | 0.547 nM | 18800 nM | 2.15 nM
11 | C[C@@]1(F)CCCN2C[C@@H]1n1cc(C(=O)NCc3ccc(F)cc3F)c(=O)c(O)c1C2=O [Example 60-3, (6R, 7S)—N-(2,4-difluorobenzyl)-6-fluoro-12-hydroxy-6-methyl-1,11-dioxo-1,4,5,6,7,11-hexahydro-3H-2,7-methanopyrido[1,2-a][1,4]diazonine-10-carboxamide] | 14.8 nM | 0.376 nM | 14800 nM | 2.23 nM
12 | C[C@H]1C=C[C@H](C)N2C[C@H]1n1cc(C(=O)NCc3c(F)cc(F)cc3F)c(=O)c(O)c1C2=O [Example 183, (3S,6S,7S)-12-hydroxy-3,6-dimethyl-1,11-dioxo-N-(2,4,6-trifluorobenzyl)-1,6,7,11-tetrahydro-3H-2,7-methanopyrido[1,2-a][1,4]diazonine-10-carboxamide] | 5.71 nM | 0.262 nM | 10500 nM | 0.869 nM
13 | C[C@@]1(F)CCCN2C[C@@H]1n1cc(C(=O)NCc3c(F)cc(F)cc3F)c(=O)c(O)c1C2=O [Example 61-2, (6R, 7S)-6-fluoro-12-hydroxy-6-methyl-1,11-dioxo-N-(2,4,6-trifluorobenzyl)-1,4,5,6,7,11-hexahydro-3H-2,7-methanopyrido[1,2-a][1,4]diazonine-10-carboxamide] | 13.8 nM | 0.142 nM | 16900 nM | 2.51 nM
14 | C[C@@H]1CC[C@H](C)N2C[C@H]1n1cc(C(=O)NCc3c(F)cc(F)cc3F)c(=O)c(O)c1C2=O [Example 174, (3S,6R,7S)-12-hydroxy-3,6-dimethyl-1,11-dioxo-N-(2,4,6-trifluorobenzyl)-1,4,5,6,7,11-hexahydro-3H-2,7-methanopyrido[1,2-a][1,4]diazonine-10-carboxamide] | 58.4 nM | 0.346 nM | 11400 nM | 1.26 nM
15 | O=C(NCc1c(F)cc(F)cc1F)c1cn2c(c(O)c1=O)C(=O)N1CCCC[C@@H]2C1 [Example 26-1, (7R)-12-hydroxy-1,11-dioxo-N-(2,4,6-trifluorobenzyl)-1,4,5,6,7,11-hexahydro-3H-2,7-methanopyrido[1,2-a][1,4]diazonine-10-carboxamide] | 33.4 nM | 0.354 nM | 15900 nM | 1.4 nM
16 | O=C(NCc1ccc(F)cc1F)c1cn2c(c(O)c1=O)C(=O)N1CC3CC3CC2C1 (single isomer, unassigned) [Example 42-1, N-(2,4-difluorobenzyl)-5-hydroxy-4,6-dioxo-1,1a,2,4,6,10,11,11a-octahydro-3,10-methanocyclopropa[f]pyrido[1,2-a][1,4]diazonine-7-carboxamide] | 1.34 nM | 0.28 nM | 7490 nM | 1.6 nM
17 | C[C@]1(O)CCCN2C[C@H]1n1cc(C(=O)NCc3ccc(F)cc3F)c(=O)c(O)c1C2=O [Example 14-1, (6S,7R)—N-(2,4-difluorobenzyl)-6,12-dihydroxy-6-methyl-1,11-dioxo-1,4,5,6,7,11-hexahydro-3H-2,7-methanopyrido[1,2-a][1,4]diazonine-10-carboxamide] | 1.88 nM | 0.79 nM | 22200 nM | 3 nM
18 | O=C(NCc1c(F)cc(F)cc1F)c1cn2c(c(O)c1=O)C(=O)N1C[C@H]2CCc2cccc(F)c21 [Example 46-2, (12R)-4-fluoro-7-hydroxy-6,8-dioxo-N-(2,4,6-trifluorobenzyl)-6,8,13,14-tetrahydro-12H-5,12-methanobenzo[e]pyrido[1,2-a][1,4]diazonine-9-carboxamide] | 2.91 nM | 0.204 nM | 12500 nM | 1.41 nM
19 | C[C@@]1(O)CCCN2C[C@@H]1n1cc(C(=O)NCc3ccc(F)cc3F)c(=O)c(O)c1C2=O [Example 14-2, (6R,7S)—N-(2,4-difluorobenzyl)-6,12-dihydroxy-6-methyl-1,11-dioxo-1,4,5,6,7,11-hexahydro-3H-2,7-methanopyrido[1,2-a][1,4]diazonine-10-carboxamide] | 0.414 nM | 0.567 nM | 19900 nM | 2.7 nM
20 | C[C@H]1[C@H]2CCCCN1C(=O)c1c(O)c(=O)c(C(=O)NCc3ccc(F)cc3F)cn12 [Example 9, (7R,13S)—N-(2,4-difluorobenzyl)-12-hydroxy-13-methyl-1,11-dioxo-1,4,5,6,7,11-hexahydro-3H-2,7-methanopyrido[1,2-a][1,4]diazonine-10-carboxamide] | 1.68 nM | 0.33 nM | 6610 nM | 1.8 nM
21 | O=C(NCc1c(F)cc(F)cc1F)c1cn2c(c(O)c1=O)C(=O)N1CCC[C@H](F)[C@H]2C1 [Example 15-2, (6S, 7R)-6-fluoro-12-hydroxy-1,11-dioxo-N-(2,4,6-trifluorobenzyl)-1,4,5,6,7,11-hexahydro-3H-2,7-methanopyrido[1,2-a][1,4]diazonine-10-carboxamide] | 4.32 nM | 0.29 nM | 15300 nM | 1.4 nM
